Data published in ChEMBL document CHEMBL1143353, “Pyrazolo[1,5-a]-1,3,5-triazine as a purine bioisostere: access to potent cyclin-dependent kinase inhibitor (R)-roscovitine analogue” (J Med Chem, 2009).

Assays:
HCC 2998 = assay: cells; conditions: Homo sapiens, HCC 2998, 72 h
Description: Antiproliferative activity against human HCC2998 cells after 72 hrs by ViaLight assay

RXF 393 = assay: cells; conditions: Homo sapiens, RXF 393, 72 h
Description: Antiproliferative activity against human RFX393 cells after 72 hrs by ViaLight assay

SK-MEL-28 = assay: Antiproliferative activity against human SK-MEL-28 cells after 72 hrs by ViaLight assay; type: functional; conditions: SK-MEL-28, 72 h
DU-145 = assay: cells; conditions: Homo sapiens, DU-145, 72 h
Description: Antiproliferative activity against human DU145 cells after 72 hrs by ViaLight assay

Raji = assay: Antiproliferative activity against human Raji cells after 72 hrs by ViaLight assay; type: functional, cell-based
OVCAR-4 = assay: cells; conditions: Homo sapiens, OVCAR-4, 72 h
Description: Antiproliferative activity against human OVCAR4 cells after 72 hrs by ViaLight assay

NCI-H23 = assay: cells; conditions: Homo sapiens, NCI-H23, 72 h
Description: Antiproliferative activity against human NCI-H23 cells after 72 hrs by ViaLight assay

Malme-3M = assay: cells; conditions: Homo sapiens, 72 h
Description: Antiproliferative activity against human MALME-3M cells after 72 hrs by ViaLight assay

SNB-19 = assay: cells; conditions: Homo sapiens, SNB-19, 72 h
Description: Antiproliferative activity against human SNB19 cells after 72 hrs by ViaLight assay

cells = conditions: Homo sapiens, HL-60, 72 h
Description: Antiproliferative activity against human HL60(TB) cells after 72 hrs by ViaLight assay

U-251 = assay: cells; conditions: Homo sapiens, U-251, 72 h
Description: Antiproliferative activity against human U251 cells after 72 hrs by ViaLight assay

CDK9/cyclin T1 = CDK9/cyclin T1 (Homo sapiens, UniProt P50750); assay: Inhibition of human recombinant CDK9/cyclin T expressed in baculovirus-infected insect cells
CDK9/cyclin T1, sequence (O60563 whole entry): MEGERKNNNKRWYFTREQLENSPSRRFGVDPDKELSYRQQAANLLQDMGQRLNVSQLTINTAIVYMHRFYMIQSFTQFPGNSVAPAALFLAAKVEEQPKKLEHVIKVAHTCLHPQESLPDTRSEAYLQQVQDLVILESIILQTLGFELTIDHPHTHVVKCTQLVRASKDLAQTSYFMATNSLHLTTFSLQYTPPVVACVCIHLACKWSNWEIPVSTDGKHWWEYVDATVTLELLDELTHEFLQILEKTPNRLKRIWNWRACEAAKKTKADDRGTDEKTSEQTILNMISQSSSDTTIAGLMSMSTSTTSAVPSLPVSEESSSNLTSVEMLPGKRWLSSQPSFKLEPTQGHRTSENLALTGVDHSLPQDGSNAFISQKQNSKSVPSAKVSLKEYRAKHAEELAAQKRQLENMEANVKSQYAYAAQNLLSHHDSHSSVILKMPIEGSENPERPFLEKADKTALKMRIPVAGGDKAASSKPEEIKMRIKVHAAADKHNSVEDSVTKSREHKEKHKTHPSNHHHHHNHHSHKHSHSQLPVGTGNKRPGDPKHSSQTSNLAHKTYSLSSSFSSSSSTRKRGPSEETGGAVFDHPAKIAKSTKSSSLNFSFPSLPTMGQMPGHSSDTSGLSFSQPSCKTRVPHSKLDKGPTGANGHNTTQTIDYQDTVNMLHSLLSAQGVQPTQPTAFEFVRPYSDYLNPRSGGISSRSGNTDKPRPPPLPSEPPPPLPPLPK
CDK9/cyclin T1, sequence (P50750 whole entry): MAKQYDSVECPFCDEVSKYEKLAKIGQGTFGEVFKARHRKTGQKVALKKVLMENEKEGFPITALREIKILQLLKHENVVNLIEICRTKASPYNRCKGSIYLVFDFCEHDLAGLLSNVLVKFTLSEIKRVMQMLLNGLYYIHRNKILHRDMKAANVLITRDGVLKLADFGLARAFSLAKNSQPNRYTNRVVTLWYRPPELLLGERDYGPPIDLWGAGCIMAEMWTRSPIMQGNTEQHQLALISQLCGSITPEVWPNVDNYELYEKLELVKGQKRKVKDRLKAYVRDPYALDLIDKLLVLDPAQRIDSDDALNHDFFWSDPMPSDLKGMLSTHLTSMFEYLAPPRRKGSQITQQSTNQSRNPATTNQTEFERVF

EKVX = assay: cells; conditions: Homo sapiens, 72 h
Description: Antiproliferative activity against human EKVX cells after 72 hrs by ViaLight assay

T47D = assay: cells; conditions: Homo sapiens, 72 h
Description: Antiproliferative activity against human T47D cells after 72 hrs by ViaLight assay

SK-OV-3 = assay: cells; conditions: Homo sapiens, SK-OV-3, 72 h
Description: Antiproliferative activity against human SKOV3 cells after 72 hrs by ViaLight assay

SF-295 = assay: cells; conditions: Homo sapiens, SF-295, 72 h
Description: Antiproliferative activity against human SF295 cells after 72 hrs by ViaLight assay

NCI-H322M = assay: cells; conditions: Homo sapiens, 72 h
Description: Antiproliferative activity against human NCI-H322M cells after 72 hrs by ViaLight assay

[1] = molecular target: Cyclin-dependent kinase 5/CDK5 activator 1 (Homo sapiens, UniProt Q00535)
Cyclin-dependent kinase 5/CDK5 activator 1, sequence (Q00535 whole entry): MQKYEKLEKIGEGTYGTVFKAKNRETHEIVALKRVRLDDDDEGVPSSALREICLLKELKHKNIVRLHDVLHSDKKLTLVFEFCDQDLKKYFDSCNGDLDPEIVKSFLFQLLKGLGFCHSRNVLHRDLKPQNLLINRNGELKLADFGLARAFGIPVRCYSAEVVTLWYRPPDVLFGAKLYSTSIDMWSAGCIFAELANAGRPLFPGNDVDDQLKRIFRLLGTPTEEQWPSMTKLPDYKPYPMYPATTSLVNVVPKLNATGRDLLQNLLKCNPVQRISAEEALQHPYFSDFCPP
Cyclin-dependent kinase 5/CDK5 activator 1, sequence (Q15078 whole entry, further chain): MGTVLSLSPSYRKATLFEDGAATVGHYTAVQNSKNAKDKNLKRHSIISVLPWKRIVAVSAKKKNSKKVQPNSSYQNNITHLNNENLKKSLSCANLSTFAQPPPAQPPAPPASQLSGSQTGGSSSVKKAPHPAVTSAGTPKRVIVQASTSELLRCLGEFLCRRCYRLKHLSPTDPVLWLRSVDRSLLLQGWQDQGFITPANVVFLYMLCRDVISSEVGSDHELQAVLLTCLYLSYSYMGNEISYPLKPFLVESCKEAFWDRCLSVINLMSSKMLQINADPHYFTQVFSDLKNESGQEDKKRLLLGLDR
Description: Inhibition of human recombinant CDK5/p25 expressed in Escherichia coli

IGROV-1 = assay: cells; conditions: Homo sapiens, IGROV-1, 72 h
Description: Antiproliferative activity against human IGROV1 cells after 72 hrs by ViaLight assay

MDA-MB-231 = assay: cells; conditions: Homo sapiens, MDA-MB-231, 72 h
Description: Antiproliferative activity against human MDA-MB-231 cells after 72 hrs by ViaLight assay

786-0 = assay: cells; conditions: Homo sapiens, 786-0, 72 h
Description: Antiproliferative activity against human 786-0 cells after 72 hrs by ViaLight assay

HT-29 = assay: cells; conditions: Homo sapiens, HT-29, 72 h
Description: Antiproliferative activity against human HT29 cells after 72 hrs by ViaLight assay

SF-268 = assay: cells; conditions: Homo sapiens, SF-268, 72 h
Description: Antiproliferative activity against human SF268 cells after 72 hrs by ViaLight assay

NCI/ADR-RES = assay: cells; conditions: Homo sapiens, 72 h
Description: Antiproliferative activity against human NCI/ADR-RES cells after 72 hrs by ViaLight assay

UO-31 = assay: cells; conditions: Homo sapiens, UO-31, 72 h
Description: Antiproliferative activity against human UO31 cells after 72 hrs by ViaLight assay

OVCAR-3 = assay: cells; conditions: Homo sapiens, OVCAR-3, 72 h
Description: Antiproliferative activity against human OVCAR-3 cells after 72 hrs by ViaLight assay

NCI-H226 = assay: cells; conditions: Homo sapiens, NCI-H226, 72 h
Description: Antiproliferative activity against human NCI-H226 cells after 72 hrs by ViaLight assay

NCI-H522 = assay: cells; conditions: Homo sapiens, NCI-H522, 72 h
Description: Antiproliferative activity against human NCI-H522 cells after 72 hrs by ViaLight assay

CAKI-1 = assay: cells; conditions: Homo sapiens, CAKI-1, 72 h
Description: Antiproliferative activity against human Caki1 cells after 72 hrs by ViaLight assay

UACC-62 = assay: cells; conditions: Homo sapiens, UACC-62, 72 h
Description: Antiproliferative activity against human UACC62 cells after 72 hrs by ViaLight assay

CC[C@H](CO)Nc1nc(NCc2ccccc2)n2ncc(C(C)C)c2n1
GI50 (HCC 2998): 1.2 µM | TGI (HCC 2998): 3.27 µM | CC50 (HCC 2998; read-out: LC50): 8.96 µM | GI50 (HCC 2998; read-out: pGI50 (converted)): 1.2 µM | CC50 (HCC 2998; read-out: pLC50 (converted)): 8.71 µM | TGI (HCC 2998; read-out: pTGI): 3.24 µM | GI50 (RXF 393): 0.25 µM | TGI (RXF 393): 0.79 µM | CC50 (RXF 393; read-out: LC50): 4.25 µM | GI50 (RXF 393; read-out: pGI50 (converted)): 0.251 µM | CC50 (RXF 393; read-out: pLC50 (converted)): 4.27 µM | TGI (RXF 393; read-out: pTGI): 0.794 µM | GI50 (SK-MEL-28; read-out: GI50): 1.16 µM | CC50 (SK-MEL-28; read-out: LC50 (the source's name)): 16.9 µM | TGI (SK-MEL-28; read-out: TGI): 3.82 µM | GI50 (SK-MEL-28; read-out: pGI50 (converted)): 1.15 µM | CC50 (SK-MEL-28; read-out: pLC50 (the source's name) (converted)): 17 µM | TGI (SK-MEL-28; read-out: pTGI (converted)): 3.8 µM | GI50 (DU-145): 1.3 µM | TGI (DU-145): 9.52 µM | CC50 (DU-145; read-out: LC50): > 100 µM | GI50 (DU-145; read-out: pGI50 (converted)): 2.63 µM | CC50 (DU-145; read-out: pLC50 (converted)): 100 µM | TGI (DU-145; read-out: pTGI): 9.55 µM | Activity (Raji): Dose-dependent effect | GI50 (OVCAR-4): 2.57 µM | TGI (OVCAR-4): 37 µM | CC50 (OVCAR-4; read-out: LC50): > 100 µM | GI50 (OVCAR-4; read-out: pGI50 (converted)): 2.63 µM | CC50 (OVCAR-4; read-out: pLC50 (converted)): 100 µM | TGI (OVCAR-4; read-out: pTGI): 0.372 µM | GI50 (NCI-H23): 1.71 µM | TGI (NCI-H23): 7.79 µM | CC50 (NCI-H23; read-out: LC50): > 100 µM | GI50 (NCI-H23; read-out: pGI50 (converted)): 1.7 µM | CC50 (NCI-H23; read-out: pLC50 (converted)): 100 µM | TGI (NCI-H23; read-out: pTGI): 7.76 µM | GI50 (Malme-3M): 2.6 µM | TGI (Malme-3M): 6.99 µM | CC50 (Malme-3M; read-out: LC50): 43.5 µM | GI50 (Malme-3M; read-out: pGI50 (converted)): 2.63 µM | CC50 (Malme-3M; read-out: pLC50 (converted)): 43.7 µM | TGI (Malme-3M; read-out: pTGI): 6.92 µM | GI50 (SNB-19): 1.44 µM | TGI (SNB-19): 12.3 µM | CC50 (SNB-19; read-out: LC50): > 100 µM | GI50 (SNB-19; read-out: pGI50 (converted)): 1.15 µM | CC50 (SNB-19; read-out: pLC50 (converted)): 100 µM | TGI (SNB-19; read-out: pTGI): 12.3 µM | GI50 (cells): 0.41 µM | TGI (cells): 2.68 µM | CC50 (cells; read-out: LC50): > 100 µM | GI50 (cells; read-out: pGI50 (converted)): 0.407 µM | CC50 (cells; read-out: pLC50 (converted)): 100 µM | TGI (cells; read-out: pTGI): 2.69 µM | GI50 (U-251): 1.4 µM | TGI (U-251): 10.5 µM | CC50 (U-251; read-out: LC50): > 100 µM | GI50 (U-251; read-out: pGI50 (converted)): 1.41 µM | CC50 (U-251; read-out: pLC50 (converted)): 100 µM | TGI (U-251; read-out: pTGI): 10.5 µM | IC50 (CDK9/cyclin T1): 0.043 µM | GI50 (EKVX): 2.41 µM | TGI (EKVX): 9.13 µM | GI50 (EKVX; read-out: pGI50 (converted)): 2.4 µM | TGI (EKVX; read-out: pTGI): 9.12 µM | GI50 (T47D): 2.48 µM | TGI (T47D): 13.3 µM | CC50 (T47D; read-out: LC50): > 100 µM | GI50 (T47D; read-out: pGI50 (converted)): 3.09 µM | CC50 (T47D; read-out: pLC50 (converted)): 100 µM | TGI (T47D; read-out: pTGI): 12.9 µM | GI50 (SK-OV-3): 5.55 µM | TGI (SK-OV-3): 40.2 µM | CC50 (SK-OV-3; read-out: LC50): > 100 µM | GI50 (SK-OV-3; read-out: pGI50 (converted)): 5.5 µM | CC50 (SK-OV-3; read-out: pLC50 (converted)): 100 µM | TGI (SK-OV-3; read-out: pTGI): 39.8 µM | GI50 (SF-295): 0.81 µM | TGI (SF-295): 4.74 µM | GI50 (SF-295; read-out: pGI50 (converted)): 0.813 µM | TGI (SF-295; read-out: pTGI): 4.79 µM | GI50 (NCI-H322M): 1.86 µM | TGI (NCI-H322M): 8.92 µM | CC50 (NCI-H322M; read-out: LC50): > 100 µM | GI50 (NCI-H322M; read-out: pGI50 (converted)): 1.86 µM | CC50 (NCI-H322M; read-out: pLC50 (converted)): 100 µM | TGI (NCI-H322M; read-out: pTGI): 8.91 µM | IC50 [1]: 0.07 µM | GI50 (IGROV-1): 0.78 µM | TGI (IGROV-1): > 100 µM | CC50 (IGROV-1; read-out: LC50): > 100 µM | GI50 (IGROV-1; read-out: pGI50 (converted)): 0.776 µM | CC50 (IGROV-1; read-out: pLC50 (converted)): 100 µM | TGI (IGROV-1; read-out: pTGI): 100 µM | GI50 (MDA-MB-231): 2.37 µM | TGI (MDA-MB-231): 9.47 µM | CC50 (MDA-MB-231; read-out: LC50): > 100 µM | GI50 (MDA-MB-231; read-out: pGI50 (converted)): 2.4 µM | CC50 (MDA-MB-231; read-out: pLC50 (converted)): 100 µM | TGI (MDA-MB-231; read-out: pTGI): 9.55 µM | GI50 (786-0): 1.98 µM | TGI (786-0): 10.7 µM | CC50 (786-0; read-out: LC50): > 100 µM | GI50 (786-0; read-out: pGI50 (converted)): 1.86 µM | CC50 (786-0; read-out: pLC50 (converted)): 100 µM | TGI (786-0; read-out: pTGI): 0.135 µM | GI50 (HT-29): 2 µM | TGI (HT-29): 15.5 µM | CC50 (HT-29; read-out: LC50): > 100 µM | GI50 (HT-29; read-out: pGI50 (converted)): 2 µM | CC50 (HT-29; read-out: pLC50 (converted)): 100 µM | TGI (HT-29; read-out: pTGI): 15.5 µM | GI50 (SF-268): 1.82 µM | TGI (SF-268): 7.2 µM | CC50 (SF-268; read-out: LC50): > 100 µM | GI50 (SF-268; read-out: pGI50 (converted)): 1.82 µM | CC50 (SF-268; read-out: pLC50 (converted)): 100 µM | TGI (SF-268; read-out: pTGI): 7.24 µM | GI50 (NCI/ADR-RES): 2.08 µM | TGI (NCI/ADR-RES): 15.7 µM | CC50 (NCI/ADR-RES; read-out: LC50): > 100 µM | GI50 (NCI/ADR-RES; read-out: pGI50 (converted)): 2.09 µM | CC50 (NCI/ADR-RES; read-out: pLC50 (converted)): 100 µM | TGI (NCI/ADR-RES; read-out: pTGI): 15.8 µM | GI50 (UO-31): 1.59 µM | TGI (UO-31): > 100 µM | GI50 (UO-31; read-out: pGI50 (converted)): 1.58 µM | TGI (UO-31; read-out: pTGI): 100 µM | GI50 (OVCAR-3): 1.15 µM | TGI (OVCAR-3): 4.6 µM | CC50 (OVCAR-3; read-out: LC50): 42.4 µM | GI50 (OVCAR-3; read-out: pGI50 (converted)): 1.45 µM | CC50 (OVCAR-3; read-out: pLC50 (converted)): 42.7 µM | TGI (OVCAR-3; read-out: pTGI): 4.57 µM | GI50 (NCI-H226): 1.84 µM | TGI (NCI-H226): 10.1 µM | CC50 (NCI-H226; read-out: LC50): > 100 µM | GI50 (NCI-H226; read-out: pGI50 (converted)): 1.86 µM | CC50 (NCI-H226; read-out: pLC50 (converted)): 100 µM | TGI (NCI-H226; read-out: pTGI): 10.5 µM | GI50 (NCI-H522): 1.46 µM | TGI (NCI-H522): 8.98 µM | CC50 (NCI-H522; read-out: LC50): > 100 µM | GI50 (NCI-H522; read-out: pGI50 (converted)): 1.45 µM | CC50 (NCI-H522; read-out: pLC50 (converted)): 100 µM | TGI (NCI-H522; read-out: pTGI): 8.91 µM | GI50 (CAKI-1): 1.02 µM | TGI (CAKI-1): 8.35 µM | CC50 (CAKI-1; read-out: LC50): > 100 µM | GI50 (CAKI-1; read-out: pGI50 (converted)): 1.05 µM | CC50 (CAKI-1; read-out: pLC50 (converted)): 100 µM | TGI (CAKI-1; read-out: pTGI): 8.13 µM | GI50 (UACC-62): 1.37 µM | TGI (UACC-62): 5.5 µM | CC50 (UACC-62; read-out: LC50): 31.1 µM | GI50 (UACC-62; read-out: pGI50 (converted)): 1.38 µM | CC50 (UACC-62; read-out: pLC50 (converted)): 30.9 µM | TGI (UACC-62; read-out: pTGI): 5.5 µM
